Measured values: ChEMBL document CHEMBL5518202, “Discovery of a Potent Nicotinamide Phosphoribosyltransferase Activator for Improving Aging-associated Dysfunctions” (J Med Chem, 2024)

Target: Nicotinamide phosphoribosyltransferase (Homo sapiens, UniProt P43490)
Experiment: Binding affinity to NAMPT (unknown origin) assessed as dissociation constant incubated for 30 mins by microscale thermophoresis analysis

Nicotinamide phosphoribosyltransferase, sequence (P43490 whole entry): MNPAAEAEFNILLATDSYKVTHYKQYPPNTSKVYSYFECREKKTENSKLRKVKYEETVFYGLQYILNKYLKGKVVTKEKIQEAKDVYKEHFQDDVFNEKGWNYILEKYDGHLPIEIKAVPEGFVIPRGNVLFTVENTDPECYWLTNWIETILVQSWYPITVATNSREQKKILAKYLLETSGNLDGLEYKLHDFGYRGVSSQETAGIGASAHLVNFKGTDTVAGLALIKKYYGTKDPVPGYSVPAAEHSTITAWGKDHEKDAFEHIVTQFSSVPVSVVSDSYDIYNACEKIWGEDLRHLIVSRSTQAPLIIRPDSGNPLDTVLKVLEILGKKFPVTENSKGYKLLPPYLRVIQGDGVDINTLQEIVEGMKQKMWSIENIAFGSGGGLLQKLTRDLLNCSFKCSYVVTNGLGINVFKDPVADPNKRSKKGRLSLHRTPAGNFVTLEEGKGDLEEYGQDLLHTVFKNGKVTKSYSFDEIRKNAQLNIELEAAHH

- Kd: 6.82 µM
Compound: O=C(NCc1ccncc1)Nc1ccc(S(=O)(=O)N2CC3CCC(C2)O3)cc1
